Measured values as given in patent US20110060124A1, “HLA-BINDING PEPTIDES, PRECURSORS THEREOF, DNA FRAGMENTS AND RECOMBINANT VECTORS THAT CODE FOR THOSE PEPTIDE SEQUENCES” (priority 2004, published 2011).
Peptide text beside a SMILES is read from it.

tested on: HLA-A24 type molecule, product of the HLA-A*2402 gene; experiment: Experiment of binding peptide to HLA-A24 type molecule (C1R-A24 cells, flow cytometry, Kd); design: species or system human; details: −log Kd value
Procedure: After neutralization, purified β2m was added to C1R-A24 cells, and the obtained product was added to serial dilutions of a peptide, and incubated on ice for 4 hours.
Subsequently, the MHC-pep count per C1R-A24 cell (proportional to the strength of fluorescence of the above-mentioned fluorescent antibody) was quantitatively measured using an FACScan fluorescence-activated cell sorter (Becton Dickinson Biosciences). A binding dissociation constant Kd value between the HLA-A24 type molecule and the peptide was calculated from the average strength of fluorescence per cell by a published method (Udaka et al., Immunogenetics, 51, 816-828, 2000).

Row | Structure (SMILES) | binding experimental value
1 | CC[C@H](C)[C@H](NC(=O)[C@@H]1CCCN1C(=O)[C@H](CC(=O)O)NC(=O)[C@H](Cc1ccccc1)NC(=O)[C@H](CO)NC(=O)[C@H](CC(=O)O)NC(=O)[C@H](CC(C)C)NC(=O)[C@@H](NC(=O)[C@@H](N)C(C)C)[C@@H](C)CC)C(=O)O [SEQ ID NO: 2] (H-VILDSFDPI-OH; N-terminus and C-terminus assumed) | 5.324
2 | CC[C@H](C)[C@H](N)C(=O)N[C@H](C(=O)N[C@@H](Cc1ccc(O)cc1)C(=O)N[C@@H](CO)C(=O)N[C@H](C(=O)N[C@@H](Cc1ccc(O)cc1)C(=O)NCC(=O)N[C@@H](CCCCN)C(=O)N[C@@H](Cc1ccccc1)C(=O)O)[C@@H](C)O)[C@@H](C)O [SEQ ID NO: 107] (H-ITYSTYGKF-OH; N-terminus and C-terminus assumed) | 6.374
3 | CC[C@H](C)[C@H](N)C(=O)N[C@H](C(=O)N[C@@H](Cc1ccc(O)cc1)C(=O)N[C@@H](CO)C(=O)N[C@H](C(=O)N[C@@H](Cc1ccc(O)cc1)C(=O)N[C@@H](CS)C(=O)N[C@@H](CCCCN)C(=O)N[C@@H](Cc1ccccc1)C(=O)O)[C@@H](C)O)[C@@H](C)O [SEQ ID NO: 40] (H-ITYSTYCKF-OH; N-terminus and C-terminus assumed) | 6.975
